According to patent US20070117743A1, “New antitumoral compounds” (priority 2003, published 2007):

What was measured:
Format in all cases: cell-based, human
A-549 = assay: SRB colorimetric assay of cell growth and viability, A-549; conditions: 48 hours exposure
SK-MEL-28 = assay: SRB colorimetric assay of cell growth and viability, SK-MEL-28; conditions: 48 hours exposure, SRB
HT-29 = assay: SRB colorimetric assay of cell growth and viability, HT-29; conditions: 48 hours exposure
LoVo = assay: SRB colorimetric assay of cell growth and viability, LoVo; conditions: 48 hours exposure
LoVo-Dox = assay: SRB colorimetric assay of cell growth and viability, LoVo-Dox; conditions: 48 hours exposure
How it was run: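 Human tumor cells seeded at 5×10^3/well in RPMI 1640 10% FBS, attached 18 hours, then exposed 48 hours to compound (10 to 10^−8 μg/mL). TCA-fixed, SRB-stained, OD 490 nm; triplicates give GI, TGI and LC values.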

DU-145 = assay: SRB colorimetric assay of cell growth and viability, DU-145; conditions: 48 hours exposure, SRB
LNCaP = assay: SRB colorimetric assay of cell growth and viability, LNCaP; conditions: 48 hours exposure, SRB
Text: The finality of this assay is to interrupt the growth of a “in vitro” tumor cell culture by means a continued exhibition of the cells to the sample to be testing.
This form of the assay employs 96 well cell culture microplates of 9 mm diameter (Faircloth, 1988; Mosmann, 1983). Most of the cell lines are obtained from American Type Culture Collection (ATCC) derived from different human cancer types.
Cells are maintained in RPMI 1640 10% FBS, supplemented with 0.1 g/l penicillin and 0.1 g/l streptomycin sulfate and then incubated at 37° C., 5% CO2 and 98% humidity. For the experiments, cells were harvested from subconfluent cultures using trypsin and resuspended in fresh medium before plating.
Cells are seeded in 96 well microtiter plates, at 5×10^3 cells per well in aliquots of 195 μL medium, and they are allowed to attach to the plate surface by growing in drug free medium for 18 hours. Afterward, samples are added in aliquots of 5 μL in a ranging from 10 to 10^−8 μg/mL, dissolved in DMSO:EtOH:PBS (0.5:0.5:99). After 48 hours exposure, the antitumor effect are measured by the SRB methodology: cells are fixed by adding 50 μL of cold 50% (wt/vol) trichloroacetic acid (TCA) and incubating for 60 minutes at 4° C. Plates are washed with deionized water and dried. One hundred μL of SRB solution (0.4% wt/vol in 1% acetic acid) is added to each microtiter well and incubated for 10 minutes at room temperature. Unbound SRB is removed by washing with 1% acetic acid. Plates are air dried and bound stain is solubilized with Tris buffer. Optical densities are read on a automated spectrophotometric plate reader at a single wavelength of 490 nm.
The values for mean+/− SD of data from triplicate wells are calculated. Some parameters for cellular responses can be calculated: GI=growth inhibition, TGI=total growth inhibition (cytostatic effect) and LC=cell killing (cytotoxic effect).

IGROV-1 = assay: SRB colorimetric assay of cell growth and viability, IGROV-1; conditions: 48 hours exposure, SRB
IGROV-ET = assay: SRB colorimetric assay of cell growth and viability, IGROV-ET; conditions: 48 hours exposure, SRB
HeLa = assay: SRB colorimetric assay of cell growth and viability, HeLa; conditions: 48 hours exposure
HeLa-APL = assay: SRB colorimetric assay of cell growth and viability, HeLa-APL; conditions: 48 hours exposure
K-562 = assay: SRB colorimetric assay of cell growth and viability, K-562; conditions: 48 hours exposure
PANC-1 = assay: SRB colorimetric assay of cell growth and viability, PANC-1; conditions: 48 hours exposure

With `C/C=C1\NC(=O)[C@H](Cc2ccccc2)NC(=O)[C@@H](C(C)C)NC(=O)[C@@H]([C@@H](C)CC)NC(=O)[C@H](NC(=O)[C@H](NC(=O)[C@H](CCCC[N+](C)(C)C)NC(=O)[C@H]2CCCN2C(=O)[C@H](NC(=O)[C@@H](NC(=O)[C@@H](NC(=O)[C@H](NC(=O)CC[C@@H](C)CC)C(C)C)[C@@H](C)O)C(C)C)C(C)C)[C@@H](C)CC)[C@@H](C)OC(=O)[C@H](C(C)C)NC1=O` [Compound 93, [N^ε(Me)3-Lys^8, (4S)-MeHex^14]-KF] the “TGI A-549” value (A-549; SRB) was 6.97E−07 Molar, the GI50 (A-549; SRB, read-out: GI50 A-549) was 0.186 µM and the CC50 (A-549; SRB, read-out: LC50 A-549) was 2.44 µM. The GI50 (SK-MEL-28) was 0.32 µM, the “TGI MEL-28” value (SK-MEL-28) was 9.51E−07 Molar and the CC50 (SK-MEL-28; read-out: LC50 MEL-28) was 2.6 µM. The “TGI HT-29” value (HT-29; SRB) was 2.72E−07 Molar, the GI50 (HT-29; SRB, read-out: GI50 HT-29) was 0.168 µM and the CC50 (HT-29; SRB, read-out: LC50 HT-29) was 0.439 µM. For the same molecule, the GI50 (LoVo; SRB) was 0.0808 µM, the “TGI LOVO” value (LoVo; SRB) was 2.08E−07 Molar and the CC50 (LoVo; SRB, read-out: LC50 LOVO) was 0.537 µM. The GI50 (LoVo-Dox; SRB) was 0.0782 µM, the “TGI LOVO-DOX” value (LoVo-Dox; SRB) was 1.82E−07 Molar and the CC50 (LoVo-Dox; SRB, read-out: LC50 LOVO-DOX) was 0.426 µM. For the same molecule, the GI50 (DU-145) was 0.00621 µM, the LC50 (concentration causing 50% net cell kill) (DU-145) was 0.044 µM and the “TGI DU-145” value (DU-145) was 1.66E−08 Molar. For the same molecule, the “TGI LN-caP” value (LNCaP) was 2.16E−06 Molar, the GI50 (LNCaP; read-out: GI50 LN-caP) was 0.795 µM and the CC50 (LNCaP; read-out: LC50 LN-caP) was 5.88 µM. The GI50 (IGROV-1) was 0.214 µM, the LC50 (concentration causing 50% net cell killing) (IGROV-1) was 0.866 µM and the “TGI IGROV” value (IGROV-1) was 3.90E−08 Molar. The GI50 (IGROV-ET) was 0.266 µM, the “TGI IGROV-ET” value (IGROV-ET) was 7.17E−07 Molar and the CC50 (IGROV-ET; read-out: LC50 IGROV-ET) was 2.49 µM. The GI50 (HeLa; SRB) was 0.491 µM, the “TGI HELA” value (HeLa; SRB) was 1.25E−06 Molar and the CC50 (HeLa; SRB, read-out: LC50 HELA) was 3.25 µM. The GI50 (HeLa-APL; SRB) was 0.651 µM, the “TGI HELA-APL” value (HeLa-APL; SRB) was 1.43E−06 Molar and the CC50 (HeLa-APL; SRB, read-out: LC50 HELA-APL) was 3.15 µM. For the same molecule, the GI50 (K-562; SRB) was 1.49 µM, the “TGI K-562” value (K-562; SRB) was 2.72E−06 Molar and the CC50 (K-562; SRB, read-out: LC50 K-562) was 4.94 µM. For the same molecule, the GI50 (PANC-1; SRB) was 1.11 µM, the “TGI PANC-1” value (PANC-1; SRB) was 2.08E−06 Molar and the CC50 (PANC-1; SRB, read-out: LC50 PANC-1) was 3.9 µM.
In the case of `C/C=C1\NC(=O)[C@H](Cc2ccccc2)NC(=O)[C@@H](C(C)C)NC(=O)[C@@H]([C@@H](C)CC)NC(=O)[C@H](NC(=O)[C@H](NC(=O)[C@H](CCCN)NC(=O)[C@@H]2CC[C@H](c3ccccc3)N2C(=O)[C@H](NC(=O)[C@@H](NC(=O)[C@@H](NC(=O)[C@H](NC(=O)CC[C@@H](C)CC)C(C)C)[C@@H](C)O)C(C)C)C(C)C)[C@@H](C)CC)[C@@H](C)OC(=O)[C@H](C(C)C)NC1=O` [Compound 62, [(5R)-Ph-Pro^9, (4S)-MeHex^14]-KF], the “TGI A-549” value (A-549; A-549) is reported as 6.43E−06 Molar, the “TGI MEL-28” value (SK-MEL-28) is reported as 6.43E−06 Molar and the “TGI HT-29” value (HT-29; HT-29) is reported as 6.43E−06 Molar. The “TGI LOVO” value (LoVo; LOVO) was 6.43E−06 Molar, the “TGI LOVO-DOX” value (LoVo-Dox; LOVO-DOX) was 6.43E−06 Molar and the “TGI DU-145” value (DU-145) was 6.43E−06 Molar. The “TGI LN-caP” value (LNCaP) was 6.43E−06 Molar, the “TGI IGROV” value (IGROV-1) was 6.43E−06 Molar and the “TGI IGROV-ET” value (IGROV-ET) was 6.43E−06 Molar. The “TGI HELA” value (HeLa; HELA) was 6.43E−06 Molar, the “TGI HELA-APL” value (HeLa-APL; HELA-APL) was 6.43E−06 Molar and the “TGI K-562” value (K-562; K-562) was 6.43E−06 Molar. For the same molecule, the “TGI PANC-1” value (PANC-1; PANC-1) was 6.43E−06 Molar.
